From US5616573A, “Glucocorticoids” (Schering Aktiengesellschaft, priority 1993, dated 1997)
Where a SMILES comes first, the peptide text is derived from it. The star is where a group is joined. Methylprednisolone(17-OCOEt) = CCC(=O)O[C@]1(C(=O)CO*)CC[C@H]2[C@@H]3C[C@H](C)C4=CC(=O)C=C[C@]4(C)[C@H]3[C@@H](O)C[C@@]21C; X1 = C[C@H]1C[C@@H]2[C@H]([C@@H](O)C[C@@]3(C)[C@H]2CC[C@]3(O)C(=O)CO*)[C@@]2(C)C=CC(=O)C=C12; X5 = C[C@]12CCC(=O)C=C1CC[C@@H]1[C@@H]2[C@@H](O)C[C@@]2(C)[C@H]1CC[C@]2(O)C(=O)CO*; Fmoc = O=C(OCC1c2ccccc2-c2ccccc21)*; Boc = CC(C)(C)OC(=O)*

Assays:
[1] = system: Esterases of Rat Skin; assay: Cleavage in the Homogenate of Normal Rat Skin (unspecific cleavage by esterases of rat skin); format: in vitro ADME; details: percent of hydrolysis rate of 6α-methylprednisolone-17-propionate-21-acetate; approximately 100 μmol/l, pH=7.4, 37° C.
Description: (§1) The homogenate of the skin of male rats (0.1 mol/l of phosphate buffer, pH=7.4) is centrifuged for 20 minutes at 10,000 g. The supernatant is adjusted in phosphate buffer to a protein concentration of 3 mg/ml. The test substances in 20 μl of ethanol are added to 1 ml of this homogenate. The final concentration of the corticoid derivatives is approximately 100 μmol/l. The incubation takes place for different periods at 37° C. At the end of incubation, the samples are extracted three times with 3 ml of chloroform. The combined extracts are evaporated to dryness under nitrogen and taken up with 100 μl of ethanol. The ethanolic solutions are mixed with the same volume of water and the saponification products are separated by HPLC (RP 18, acetonitrile/water-gradient, detection 240 nm). The relative hydrolysis rate is indicated in percent of the hydrolysis rate of the 6α-methylprednisolone-17-propionate-21-acetate.

[2] = biological target: T1, Leukocyte Elastase (Homo sapiens, UniProt P08246); assay: Cleavage of Glucocorticoid-21-Oligopeptide Esters by Leukocyte Elastase in the lysate of human neutrophilic granulocytes; format: biochemical; details: lysate of human neutrophilic granulocytes, 10^6 cells per ml, 1 hour at 37° C.; Fmoc-Ala-Ala-Pro-Val-O-MPP is used as reference
T1 construct: also pure human sputum elastase (Elastin Products)
T1 sequence (P08246 30-267): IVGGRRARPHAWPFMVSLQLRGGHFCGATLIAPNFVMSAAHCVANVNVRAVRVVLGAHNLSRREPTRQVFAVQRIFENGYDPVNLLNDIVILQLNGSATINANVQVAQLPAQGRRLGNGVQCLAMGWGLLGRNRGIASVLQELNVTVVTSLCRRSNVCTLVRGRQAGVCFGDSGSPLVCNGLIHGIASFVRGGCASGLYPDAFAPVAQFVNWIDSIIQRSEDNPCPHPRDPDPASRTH
Description: as §1
Polymorphonuclear granulocytes are isolated from donor blood. The cells are lysed in a density of 10^6 cells per ml. 1 ml each of the lysate is mixed with 20 μl of ethanolic corticoid solution (5 mmol/l) After 1 hour of incubation at 37° C., the samples are extracted three times with 3 ml of chloroform and worked up as described above for HPLC analysis. The cleavage of the prodrugs according to the invention can be inhibited under these test conditions by the addition of the specific elastase inhibitor MeO-succinyl-Ala-Ala-Pro-Val-chloromethylketone to 90%. Furthermore, the compounds are also hydrolyzed by pure human sputum-elastase (elastin products).

[3] = system: rat ear; assay: Local antiinflammatory action: modified rat ear test according to Tonelli (croton oil); format: in vivo; details: topical, * = significant (p < 0.05); for Edema [% inhibition]: ear weight, 16 hours after irritant; for Infiltration [% inhibition]: granulocytic infiltrate (myeloperoxidase and leukocyte-elastase), 16 hours
Description: The antiinflammatory activity of the corticoid-21-oligopeptide esters is performed in a modified rat ear test according to Tonelli. The modifications are based on changes of irritant solution (4% croton oil, 10% DMSO in ethanol), the type of administration (application of the solution with pipette) and the evaluation of the test 16 hours after administration of the irritant solution. At this time, both the inhibition of the edema by measuring the ear weight and the inhibition of the granulocytic infiltrate by measuring the granulocyte marker myeloperoxidase and leukocyte-elastase in the ear homogenate can be determined. The group size was 6 animals in each case.

[4] = biological target: T2, rat glucocorticoid receptor (Rattus norvegicus, UniProt P06536); assay: Binding to the Glucocorticoid Receptor: competitive displacement of tritiated dexamethasone in rat thymus cytosol; details: quotient of concentrations of test substance and dexamethasone displacing 50% of labeled dexamethasone; 2 hours at 4° C.; lower KF = better binding
T2 sequence (P06536 1-795): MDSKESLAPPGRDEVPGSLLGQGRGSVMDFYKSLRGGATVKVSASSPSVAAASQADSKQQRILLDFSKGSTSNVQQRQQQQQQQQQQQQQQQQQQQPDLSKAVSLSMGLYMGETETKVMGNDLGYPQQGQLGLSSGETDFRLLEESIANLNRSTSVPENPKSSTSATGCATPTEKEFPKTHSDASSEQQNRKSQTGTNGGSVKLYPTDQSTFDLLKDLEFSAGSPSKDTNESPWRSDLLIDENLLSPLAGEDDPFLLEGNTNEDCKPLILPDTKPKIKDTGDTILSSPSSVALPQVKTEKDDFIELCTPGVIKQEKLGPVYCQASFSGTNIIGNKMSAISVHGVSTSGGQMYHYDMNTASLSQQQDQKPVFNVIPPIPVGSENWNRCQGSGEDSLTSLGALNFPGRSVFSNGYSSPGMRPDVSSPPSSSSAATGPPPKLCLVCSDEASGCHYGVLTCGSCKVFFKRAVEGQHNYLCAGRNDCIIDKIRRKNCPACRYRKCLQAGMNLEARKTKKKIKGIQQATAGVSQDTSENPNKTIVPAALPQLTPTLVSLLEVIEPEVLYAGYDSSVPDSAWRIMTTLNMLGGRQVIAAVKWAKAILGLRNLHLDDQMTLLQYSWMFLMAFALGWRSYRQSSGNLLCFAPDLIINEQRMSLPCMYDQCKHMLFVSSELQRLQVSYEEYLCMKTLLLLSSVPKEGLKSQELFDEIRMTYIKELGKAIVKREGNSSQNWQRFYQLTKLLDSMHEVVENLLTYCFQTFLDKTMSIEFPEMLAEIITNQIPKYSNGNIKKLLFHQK
Description: The binding of the substances according to the invention to the rat glucocorticoid receptor is determined by competitive displacement of tritiated dexamethasone from the receptor binding. Different concentrations of the glucocorticoid esters are incubated for 2 hours at 4° C. in the presence of a constant concentration of tritium-labeled dexamethasone with rat thymus cytosol. After the incubation time, the non-protein-bound steroids are adsorbed on activated carbon and the activated carbon is centrifuged off. The radioactivity in the supernatant is used as a measurement for the amount of receptor-bound dexamethasone.
From the measurements, the concentrations of the respective corticoid derivative are calculated, which are necessary to displace 50% of the labeled dexamethasone from the receptor binding. Competition factor (KF) is the quotient of these calculated concentrations for the test substance and that of dexamethasone.

[5] = concentration 0.003 (unit not given)
[6] = concentration 0.03 (unit not given)
[7] = concentration 0.3 (unit not given)

| Compound | Relative Hydrolysis Rate [%] [1] [%] | Relative Hydrolysis Rate [%] [2] | Edema [% inhibition] [3, 5] [%] | Infiltration [% inhibition] [3, 5] [%] | Edema [% inhibition] [3, 6] [%] | Infiltration [% inhibition] [3, 6] [%] | Edema [% inhibition] [3, 7] [%] | Infiltration [% inhibition] [3, 7] [%] | Competition Factor [KF] [4] |
| --- | --- | --- | --- | --- | --- | --- | --- | --- | --- |
| CCC(=O)O[C@]1(C(=O)COC(=O)[C@@H](NC(=O)[C@@H]2CCCN2C(=O)[C@H](C)NC(=O)[C@H](C)NC(=O)OC(C)(C)C)C(C)C)CC[C@H]2[C@@H]3C[C@H](C)C4=CC(=O)C=C[C@]4(C)[C@H]3[C@@H](O)C[C@@]21C [Example 3, N-(N-(N-(N-(1,1-Dimethylethoxycarbonyl)-L-alanyl)-L-alanyl)-L -prolyl)-L-valine [11β,21-dihydroxy-3,20-dioxo-6α-methyl-17-propionyloxy-pregna-1,4-dien-21-yl] ester] (Boc-AAPV-{Methylprednisolone(17-OCOEt)}) | 50 | 160-190% | 17 | 11 | 51 | 43 | 81 | 77 |  |
| CCC(=O)O[C@]1(C(=O)COC(=O)[C@@H](NC(=O)[C@@H]2CCCN2C(=O)[C@H](C)NC(=O)[C@H](C)NC(=O)OCC2c3ccccc3-c3ccccc32)C(C)C)CC[C@H]2[C@@H]3C[C@H](C)C4=CC(=O)C=C[C@]4(C)[C@H]3[C@@H](O)C[C@@]21C [Example 4, N-(N-(N-(N-(9H-Fluoren-9-ylmethoxycarbonyl)-L-alanyl)-L-alanyl) -L-prolyl)-L-valine [11β,21-dihydroxy-3,20-dioxo-6α-methyl-17-propionyloxy-pregna-1,4-dien-21-yl] ester] (Fmoc-AAPV-{Methylprednisolone(17-OCOEt)}) | 4 | 100% | 30 | 16 | 48 | 42 | 78 | 66 |  |
| CC(C)[C@H](NC(=O)[C@@H]1CCCN1C(=O)[C@H](C)NC(=O)[C@H](C)NC(=O)OCC1c2ccccc2-c2ccccc21)C(=O)OCC(=O)[C@@]1(O)CC[C@H]2[C@@H]3C[C@H](C)C4=CC(=O)C=C[C@]4(C)[C@H]3[C@@H](O)C[C@@]21C [Example 22] (Fmoc-AAPV-X1) | 6 | 370% |  |  |  |  |  |  |  |
| CC(C)[C@H](NC(=O)[C@@H]1CCCN1C(=O)[C@H](C)NC(=O)[C@H](C)NC(=O)OCC1c2ccccc2-c2ccccc21)C(=O)OCC(=O)[C@@]1(O)CC[C@H]2[C@@H]3CCC4=CC(=O)CC[C@]4(C)[C@H]3[C@@H](O)C[C@@]21C [Example 29, N-(N-(N-(N-(9H-Fluoren-9-yl-methoxycarbonyl)-L-alanyl)-L-alanyl) -L-prolyl)-L-valine [11β,17,21-trihydroxy-3,20-dioxo-pregn-4-en-21-yl] ester] (Fmoc-AAPV-X5) |  |  |  |  |  |  |  |  | k.k. [n.c.] |
| CCCCC(=O)O[C@]1(C(=O)COC(=O)[C@@H](NC(=O)[C@@H]2CCCN2C(=O)[C@H](C)NC(=O)[C@H](C)NC(=O)OCC2c3ccccc3-c3ccccc32)C(C)C)[C@@H](C)C[C@H]2[C@@H]3CCC4=CC(=O)C=C[C@]4(C)[C@@]3(F)[C@@H](O)C[C@@]21C [Example 39, N-(N-(N-(N-(9H-Fluoren-9-yl-methoxycarbonyl)-L-alanyl)-L-alanyl) -L-prolyl)-L-valine [9α-fluoro-11β,21-dihydroxy-16β-methyl-3,20-dioxo-17-valeroyloxy-pregna-1,4-dien-21-yl] ester] | 0 | 42% |  |  |  |  |  |  |  |
